From patent US6291470A, “Indole derivatives process for producing the same and medicinal uses of the same” (Toray Industries, Inc., priority 1992, dated 2001)
Like-named read-outs stand apart in the source and are kept apart here.

Target: T1, δ-opioid receptor (Mus musculus, UniProt P32300)
T1 construct: from tissue; host or cells: vas deferens of male ddy mice
Test: δ-opioid antagonist activity against DPDPE in mouse vas deferens (MVD)
Details: for Ratio of IC50 Values: DPDPE IC50 with/without 100 nM test compound; for Ratio of IC50 Values / Kb: 20 min; for Kb: against DPDPE, test compound 100 nM
Experimental: Using mouse vas deferens (MVD), the antagonist activity against DPDPE which is a δ-opioid agonist was checked.
In this experiment, ddy male mice were used. In a Magnus' tube which is filled with Krebes-Henseleit solution (NaCl […]; KCl 4.7 mM; CaCl2 2.5 mM; KH2 PO4 1.1 mM; NaHCO3 25 mM; glucose 11 mM) kept at 37° C., and into which an atmosphere consisting of 5% carbon dioxide and 95% oxygen was flown, vas deferens taken from the animals was suspended. Electric stimulation was applied through ring-shaped platinum electrodes mounted on the upper and lower portions of the tube at a frequency of 0.1 Hz and 5.0 mS duration. The contraction of the tissue was recorded on polygraph using isometric transducer.
Then 100 nM of the test compound was added. Twenty minutes later, DPDPE was begun to be added cumulatively. The ratio of IC50 values in the presence and absence of the test compound, Ke value (the molar concentration of the test compound necessary for translating the dose-effect curve to the curve of twice dose) and pA2 value were determined. The pA2 value was determined by the method of Shild et al (Shild, H. O., Br. J. Pharmac. Chamotehr., 4, 277 (1949)). That is, the logarithm of the test compound (log[test compound]) was plotted along the abscissa and the logarithm of the value obtained by subtracting 1 from the ratio of IC50 values was plotted in the presence and absence of the test compound [log(dose ratio-1)] along the ordinate. The pA2 value was determined from the value on the abscissa when the value on the ordinate of the obtained line is 0.

T1 sequence (P32300 whole entry): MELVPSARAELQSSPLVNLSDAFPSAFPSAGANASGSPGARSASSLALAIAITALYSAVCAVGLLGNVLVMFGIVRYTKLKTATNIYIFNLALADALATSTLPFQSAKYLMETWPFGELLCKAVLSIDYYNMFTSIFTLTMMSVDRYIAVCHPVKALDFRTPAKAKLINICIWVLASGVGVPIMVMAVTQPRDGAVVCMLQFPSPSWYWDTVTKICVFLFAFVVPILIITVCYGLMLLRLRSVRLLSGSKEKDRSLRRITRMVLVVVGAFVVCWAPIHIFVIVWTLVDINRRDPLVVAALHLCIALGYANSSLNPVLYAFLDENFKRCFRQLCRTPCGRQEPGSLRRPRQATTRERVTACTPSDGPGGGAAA

SMILES | Ratio of IC50 Values | Kb (read-out: Ke) | Kb (read-out: pA2 (converted)) | δ-antagonist activity relative to NTI (times that of NTI)
Oc1ccc2c3c1O[C@H]1c4[nH]c5ccc(I)cc5c4C[C@@]4(O)[C@@H](C2)N(CC2CC2)CC[C@]314 [Compound 1, 17-cyclopropylmethyl-6,7-didehydro-4,5α-epoxy-3,14β-dihydroxy-5'-iodo-6,7-2',3'-indolomorphinan] | 8.88 | 12.7 nM | – | –
CCOC(=O)c1ccc2[nH]c3c(c2c1)C[C@@]1(O)[C@H]2Cc4ccc(O)c5c4[C@@]1(CCN2CC1CC1)[C@H]3O5 [Compound 3, 17-cyclopropylmethyl-6,7-didehydro-4,5α-epoxy-3,14β-dihydroxy-5'-ethoxycarbonyl-6,7-2',3'-indolomorphinan] | 5.34 | 23 nM | – | –
Oc1ccc2c3c1O[C@H]1c4[nH]c5ccc(OC(F)(F)F)cc5c4C[C@@]4(O)[C@@H](C2)N(CC2CC2)CC[C@]314 [Compound 4, 17-cyclopropylmethyl-6,7-didehydro-4,5α-epoxy-3,14β-dihydroxy-5'-trifluoromethoxy-6,7-2',3'-indolomorphinan] | 7.95 | 14.4 nM | – | –
NS(=O)(=O)c1ccc2[nH]c3c(c2c1)C[C@@]1(O)[C@H]2Cc4ccc(O)c5c4[C@@]1(CCN2CC1CC1)[C@H]3O5 [Compound 5, 17-cyclopropylmethyl-6,7-didehydro-4,5α-epoxy-3,14β-dihydroxy-5'-sulfamoyl-6,7-2',3'-indolomorphinan] | 4.36 | 29.8 nM | – | –
CS(=O)(=O)c1ccc2[nH]c3c(c2c1)C[C@@]1(O)[C@H]2Cc4ccc(O)c5c4[C@@]1(CCN2CC1CC1)[C@H]3O5 [Compound 6, 17-cyclopropylmethyl-6,7-didehydro-4,5α-epoxy-3,14β-dihydroxy-5'-methylsulfonyl-6,7-2',3'-indolomorphinan] | 12.6 | 8.62 nM | – | –
N#Cc1ccc2[nH]c3c(c2c1)C[C@@]1(O)[C@H]2Cc4ccc(O)c5c4[C@@]1(CCN2CC1CC1)[C@H]3O5 [Compound 8, 17-cyclopropylmethyl-6,7-didehydro-4,5α-epoxy-3,14β-dihydroxy-5'-cyano-6,7-2',3'-indolomorphinan] | 3.60 | 38.5 nM | – | –
OCCc1cccc2[nH]c3c(c12)C[C@@]1(O)[C@H]2Cc4ccc(O)c5c4[C@@]1(CCN2CC1CC1)[C@H]3O5 [Compound 40, 17-cyclopropylmethyl-6,7-didehydro-4,5α-epoxy-3, 14β-dihydroxy-4'-(2-hydroxyethyl)-6,7-2',3'-indolomorphinan] | 4.60 | 27.8 nM | – | –
OCCc1ccc2c3c([nH]c2c1)[C@@H]1Oc2c(O)ccc4c2[C@@]12CCN(CC1CC1)[C@H](C4)[C@]2(O)C3 [Compound 41, 17-cyclopropylmethyl-6,7-didehydro-4,5α-epoxy-3,14β-dihydroxy-6'-(2-hydroxyethyl)-6,7-2',3'-indolomorphinan] | 22.1 | 4.74 nM | – | –
O=C(NCC1CC1)c1cccc2[nH]c3c(c12)C[C@@]1(O)[C@H]2Cc4ccc(O)c5c4[C@@]1(CCN2CC1CC1)[C@H]3O5 [Compound 46, 17-cyclopropylmethyl-6,7-didehydro-4,5α-epoxy-3,14β-dihydroxy-4'-(N-cyclopropylmethylcarbamoyl)-6,7-2',3'-indolomorphinan] | 1.39 | 256 nM | – | –
CCOC(=O)Cc1cccc2[nH]c3c(c12)C[C@@]1(O)[C@H]2Cc4ccc(O)c5c4[C@@]1(CCN2CC1CC1)[C@H]3O5 [Compound 48, 17-cyclopropylmethyl-6,7-didehydro-4,5α-epoxy-3,14β-dihydroxy-4'-ethoxycarbonylmethyl-6,7-2',3'-indolomorphinan] | 5.88 | 20.5 nM | – | –
CCOC(=O)Cc1ccc2c3c([nH]c2c1)[C@@H]1Oc2c(O)ccc4c2[C@@]12CCN(CC1CC1)[C@H](C4)[C@]2(O)C3 [Compound 49, 17-cyclopropylmethyl-6,7-didehydro-4,5α-epoxy-3,14β-dihydroxy-6'-ethoxycarbonylmethyl-6,7-2',3'-indolomorphinan] | 27.8 | 3.73 nM | – | –
CN(C)S(=O)(=O)c1ccc2c3c([nH]c2c1)[C@@H]1Oc2c(O)ccc4c2[C@@]12CCN(CC1CC1)[C@H](C4)[C@]2(O)C3 [Compound 51, 17-cyclopropylmethyl-6,7-didehydro-4,5α-epoxy-3,14β-dihydroxy-6'-(N,N-dimethylsulfamoyl)-6,7-2',3'-indolomorphinan] | 33.2 | 3.11 nM | 2.69 nM | –
COC(=O)c1cccc2[nH]c3c(c12)C[C@@]1(O)[C@H]2Cc4ccc(O)c5c4[C@@]1(CCN2CC1CC1)[C@H]3O5 [Compound 76, 17-cyclopropylmethyl-6,7-didehydro-4,5α-epoxy-3,14β-dihydroxy-4'-methoxycarbonyl-6,7-2',3'-indolomorphinan] | 6.82 | 17.2 nM | – | –
COC(=O)c1ccc2c3c([nH]c2c1)[C@@H]1Oc2c(O)ccc4c2[C@@]12CCN(CC1CC1)[C@H](C4)[C@]2(O)C3 [Compound 77, 17-cyclopropylmethyl-6,7-didehydro-4,5α-epoxy-3,14β-dihydroxy-6'-methoxycarbonyl-6,7-2',3'-indolomorphinan] | 742 | 0.13 nM | – | 1.3-1.6 times
O=[N+]([O-])c1ccc2c3c([nH]c2c1)[C@@H]1Oc2c(O)ccc4c2[C@@]12CCN(CC1CC1)[C@H](C4)[C@]2(O)C3 [Compound 79, 17-cyclopropylmethyl-6,7-didehydro-4,5α-epoxy-3,14β-dihydroxy-6'-nitro-6,7-2',3'-indolomorphinan] | 60.6 | 1.68 nM | – | –
C=CCN1CC[C@]23c4c5ccc(O)c4O[C@H]2c2[nH]c4cccc(C(=O)OC)c4c2C[C@@]3(O)[C@H]1C5 [Compound 114, 17-allyl-6,7-didehydro-4,5α-epoxy-3,14β-dihydroxy-4'-methoxycarbonyl-6,7-2',3'-indolomorphinan] | 20.7 | 5.08 nM | – | –
C=CCN1CC[C@]23c4c5ccc(O)c4O[C@H]2c2[nH]c4cc(C(=O)OC)ccc4c2C[C@@]3(O)[C@H]1C5 [Compound 115, 17-allyl-6,7-didehydro-4,5α-epoxy-3,14β-dihydroxy-6'-methoxycarbonyl-6,7-2',3'-indolomorphinan] | 75.4 | 1.34 nM | – | –
Oc1ccc2c3c1O[C@H]1c4[nH]c5c(C(F)(F)F)cccc5c4C[C@@]4(O)[C@@H](C2)N(CC2CC2)CC[C@]314 [Compound 118, 17-cyclopropylmethyl-6,7-didehydro-4,5α-epoxy-3,14β-dihydroxy-7'-trifluoromethyl-6,7-2',3'-indolomorphinan] | 52.9 | 1.93 nM | – | –
Oc1ccc2c3c1O[C@H]1c4[nH]c5c(ccc6cnccc65)c4C[C@@]4(O)[C@@H](C2)N(CC2CC2)CC[C@]314 [Compound 156, 17-cyclopropylmethyl-3,14β-dihydroxy-4,5α-epoxy-6,7-didehydromorphinano[6,7-b]pyrido[4,3-g]indole] | 26.6 | 3.91 nM | – | –
CS(=O)(=O)c1ccc2c3c([nH]c2c1)[C@@H]1Oc2c(O)ccc4c2[C@@]12CCN(CC1CC1)[C@H](C4)[C@]2(O)C3 [Compound 188, 17-cyclopropylmethyl-6,7-didehydro-4,5α-epoxy-3,14β-dihydroxy-6'-methylsulfonyl-6,7-2',3'-indolomorphinan] | 56.0 | 1.82 nM | – | –
